{"source": "patent US8318657B2", "about": "“Methods and compositions for preventing and/or treating pancreatitis” (Flinders Technologies Pty Ltd., priority 2005, dated 2012)", "key": {"[1]": {"test_system": "possum model of acute pancreatitis (AP)", "experiment": "Possum model of acute pancreatitis (pancreatic duct ligation + CCK/secretin) with galanin or galantide", "type": "in vivo, Australian Brush-tailed possums (Trichosurus vulpecula)", "conditions": "for plasma amylase activity / plasma lipase activity / pancreatic vascular perfusion (PVP) / pancreatic oedema: possum AP; for pancreatic oedema: pancreas harvested 8 hours post-AP induction, H&E, point counting, treatment from 15 minutes prior to AP induction, decrease of AP-induced oedema"}, "[2]": {"test_system": "basal pancreatic exocrine secretion", "experiment": "Basal pancreatic exocrine secretion in anaesthetised possums", "type": "in vivo, Australian Brush-tailed possums (Trichosurus vulpecula)", "conditions": "galanin 0.5 or galantide 1.5 nmol/kg bolus then 2 nmol/kg/h i.v., preliminary study", "experimental": "The possums were anaesthetized as described above. The left femoral vein was cannulated with two cannulae (1.05 mm OD, 0.35 ID) for administration of anaesthetic drugs and normal saline. […] A midline laparotomy was then performed. With minimal handling of tissues, the duodenum with the sphincter of Oddi was placed on a platform and stabilised with pins. The pancreatic duct component of the sphincter of Oddi was identified with the aid of a dissecting microscope and opened with micro-scissors. It was then cannulated (1.5 mm OD, 0.9 mm ID) advanced 4-5 mm and ligated with 5-0 prolene suture. This cannula was left open to collect pancreatic juice. After an initial stabilization period of 15 minutes, the pancreatic juice was collected every 30 minutes for 3.5 hours.\n(§1) The quantity of pancreatic exocrine secretion was estimated gravimetrically (basal secretion and stimulated secretion)."}, "[3]": {"test_system": "hyperstimulated pancreatic exocrine secretion", "experiment": "Hyperstimulated (CCK/secretin) pancreatic exocrine secretion in anaesthetised possums", "type": "in vivo, Australian Brush-tailed possums (Trichosurus vulpecula)", "conditions": "CCK/secretin 5 ug/kg of each/hour i.v., galanin 0.5 or galantide 1.5 nmol/kg bolus then 2 nmol/kg/h, decrease of elevated volume, preliminary study", "experimental": "The experimental setup was similar to as described above. In the control group after an initial stabilization period of 15 minutes, the pancreatic juice was collected at half hourly intervals for one hour. This established the basal secretion rate. Then a mixture of cholecystokinin and secretin (CCK-SEC) was infused i.v at 5 μg (of each peptide)/kg/hr for the entire duration of the experiment.\nThe galanin or galantide infusion was continued for one and a half hour and then stopped. The CCK-SEC infusion was further continued for one hour. During the entire course of experiment, pancreatic juice was collected at half hourly intervals.\nas §1"}, "[4]": {"test_system": "caerulein-induced acute pancreatitis (AP) in mice", "experiment": "Caerulein-induced acute pancreatitis in mice (mild model, 7 hourly i.p. injections) with galanin or galanin antagonists", "type": "in vivo, mouse (female Balb C or Swiss)", "conditions": "for pancreatic acinar cell necrosis score: histology scoring system"}, "[5]": {"test_system": "mice without acute pancreatitis", "experiment": "Control groups: mice given galanin or galanin antagonist alone (saline, no caerulein)", "conditions": "mice without AP"}, "[6]": {"conditions": "GT 1.5 nmol/kg bolus then 2 nmol/kg/h i.v., delayed: initiated 2 hours post-AP induction"}, "[7]": {"conditions": "GT 1.5 nmol/kg bolus then 2 nmol/kg/h i.v., delayed: initiated 2 hours post-AP induction, listed as GT"}, "[8]": {"conditions": "i.v. bolus (GL 0.5, GT 1.5 nmol/kg) then 2 nmol/kg/h continuous infusion, initiated 15 minutes prior to AP induction, effect on AP-induced rise"}, "[9]": {"conditions": "i.v. bolus (GL 0.5, GT 1.5 nmol/kg) then 2 nmol/kg/h continuous infusion, initiated 15 minutes prior to AP induction, effect on AP-induced rise, listed as GT"}, "[10]": {"conditions": "mouse caerulein AP, 20 nmol/kg i.p. with each caerulein injection, reduction of AP-induced level"}, "[11]": {"conditions": "mouse caerulein AP, 40 nmol/kg i.p. with each caerulein injection, reduction of AP-induced level"}, "[12]": {"conditions": "mouse caerulein AP, GT 40 nmol/kg, treatment delayed for 2 hours post-AP induction"}}, "note": "“Also recorded” adds a separate entry of the source.", "data": [{"molecule": "CSCC[C@H](NC(=O)[C@H](CC(C)C)NC(=O)CNC(=O)[C@H](Cc1ccccc1)NC(=O)[C@H](Cc1ccccc1)NC(=O)[C@H](CCC(N)=O)NC(=O)[C@H](CCC(N)=O)NC(=O)[C@@H]1CCCN1C(=O)CNC(=O)[C@H](CC(C)C)NC(=O)[C@H](CC(C)C)NC(=O)[C@H](Cc1ccc(O)cc1)NC(=O)CNC(=O)[C@H](C)NC(=O)[C@H](CO)NC(=O)[C@H](CC(N)=O)NC(=O)[C@H](CC(C)C)NC(=O)[C@@H](NC(=O)[C@H](Cc1c[nH]c2ccccc12)NC(=O)CN)[C@@H](C)O)C(N)=O", "note": "[Galantide, Galanin(1-13)-substance P(5-11) amide]", "values": [{"measurement": "plasma amylase activity", "setting": "[1]; [6]", "value": "reduces plasma amylase and lipase secretion"}, {"measurement": "plasma lipase activity", "setting": "[1]; [6]", "value": "reduces plasma amylase and lipase secretion"}, {"measurement": "plasma amylase activity", "setting": "[1]; [7]", "value": "reduced the AP-induced rise in plasma amylase activity"}, {"measurement": "plasma lipase activity", "setting": "[1]; [7]", "value": "suppressed the AP-induced rise in plasma lipase activity"}, {"measurement": "pancreatic vascular perfusion (PVP)", "setting": "[1]; i.v. bolus (GL 0.5, GT 1.5 nmol/kg) then 2 nmol/kg/h continuous infusion, initiated 15 minutes prior to AP induction", "value": "increases PVP from the outset"}, {"measurement": "plasma amylase activity", "setting": "[1]; [8]", "value": "completed prevented the pancreatitis-induced increase in plasma amylase"}, {"measurement": "plasma lipase activity", "setting": "[1]; [8]", "value": "markedly depressed the pancreatitis-induced increase in plasma lipase"}, {"measurement": "plasma amylase activity", "setting": "[1]; [9]", "value": "completely suppressed the AP-induced rise in plasma amylase activity"}, {"measurement": "plasma lipase activity", "setting": "[1]; [9]", "value": "markedly suppressed the AP-induced rise in plasma lipase activity"}, {"measurement": "pancreatic vascular perfusion (PVP)", "setting": "[1]; i.v. bolus (GL 0.5, GT 1.5 nmol/kg) then 2 nmol/kg/h continuous infusion, initiated 15 minutes prior to AP induction, listed as GT", "value": "sustained fall in PVP"}, {"measurement": "pancreatic oedema", "setting": "[1]", "value": "reduced"}, {"measurement": "pancreatic oedema", "setting": "[1]; listed as GT", "value": "significantly decreased"}, {"measurement": "severity of pancreatitis (summary)", "setting": "[1]; possums, administration prior to the onset and also after onset of acute pancreatitis", "value": "reduces the severity of pancreatitis"}, {"measurement": "basal rate of pancreatic exocrine secretion (volume)", "setting": "[2]", "value": "does not influence basal exocrine secretion (volume)"}, {"measurement": "hyperstimulated pancreatic exocrine secretion (volume of pancreatic juice)", "setting": "[3]", "value": "does reduce hyper-stimulated exocrine secretion"}, {"measurement": "hyperstimulated pancreatic exocrine secretion (volume of pancreatic juice)", "setting": "[3]; listed as galantide", "value": "decreased"}, {"measurement": "pancreatic myeloperoxidase (MPO) activity", "setting": "[4]; mouse caerulein AP, 10 nmol/kg i.p. with each caerulein injection, reduction of AP-induced level, listed as GT", "value": "also effective; also recorded: significantly reduced"}, {"measurement": "pancreatic tissue architecture / AP-induced pancreatic damage (histological sections)", "setting": "[4]; mouse caerulein AP, 20 nmol/kg", "value": "reduced the acute pancreatitis-induced pancreatic damage"}, {"measurement": "pancreatic myeloperoxidase (MPO) activity", "setting": "[4]; [10]", "value": "significantly reduced"}, {"measurement": "plasma amylase activity", "setting": "[4]; [10]", "value": "reduced the plasma amylase level"}, {"measurement": "plasma lipase activity", "setting": "[4]; [10]", "value": "significantly reduced"}, {"measurement": "plasma amylase activity", "setting": "[4]; mouse caerulein AP, 20 nmol/kg i.p. with each caerulein injection, reduction of AP-induced level, listed as GT", "value": "significantly reduced"}, {"measurement": "pancreatic acinar cell necrosis score", "setting": "[4]; mouse caerulein AP, 20 nmol/kg", "value": "reduced the pancreatitis-induced necrosis"}, {"measurement": "pancreatic acinar cell necrosis score", "setting": "[4]; mouse caerulein AP, 20 nmol/kg, listed as GT", "value": "significantly reduced the necrosis score"}, {"measurement": "histology score (pancreatic tissue damage)", "setting": "[4]; mouse caerulein AP, 20 nmol/kg, scoring system", "value": "significantly reduced the histology score"}, {"measurement": "plasma amylase activity", "setting": "[4]; [11]", "value": "reduced the plasma amylase level"}, {"measurement": "plasma lipase activity", "setting": "[4]; [11]", "value": "significantly reduced"}, {"measurement": "plasma amylase activity", "setting": "[4]; mouse caerulein AP, 40 nmol/kg i.p. with each caerulein injection, reduction of AP-induced level, listed as GT", "value": "significantly reduced"}, {"measurement": "pancreatic myeloperoxidase (MPO) activity", "setting": "[4]; mouse caerulein AP, 40 nmol/kg i.p. with each caerulein injection, vs AP alone", "value": "significantly reduced"}, {"measurement": "plasma amylase activity", "setting": "[4]; [12]", "value": "significantly reduced"}, {"measurement": "plasma lipase activity", "setting": "[4]; [12]", "value": "significantly reduced"}, {"measurement": "pancreatitis-induced plasma hyperenzymemia", "setting": "[4]; mouse caerulein AP, galantide administered 2 hours post pancreatitis onset, preliminary results", "value": "reduces the pancreatitis-induced plasma hyperenzymemia"}, {"measurement": "severity of pancreatitis (summary)", "setting": "[4]; mouse pancreatitis studies", "value": "has the ability to reduce the severity of pancreatitis"}, {"measurement": "pancreatic myeloperoxidase (MPO) activity", "setting": "[5]; 20 nmol/kg alone", "value": "did induce a low level of pancreatic MPO"}, {"measurement": "pancreatic tissue architecture (histological sections)", "setting": "[5]; 20 nmol/kg alone", "value": "near normal pancreatic architecture"}, {"measurement": "plasma amylase activity", "setting": "[5]; 20 nmol/kg alone, vs baseline", "value": "did not increase plasma amylase activity above baseline activity"}, {"measurement": "plasma lipase activity", "setting": "[5]; 20 nmol/kg alone, vs baseline", "value": "did not increase plasma lipase activity above baseline activity"}, {"measurement": "pancreatic myeloperoxidase (MPO) activity", "setting": "[5]; 40 nmol/kg alone", "value": "did induce a low level of pancreatic MPO"}]}]}
